# Data reported in ChEMBL document CHEMBL5579877, “Design and Evaluation of 3-Phenyloxetane Derivative Agonists of the Glucagon-Like Peptide-1 Receptor” (J Med Chem, 2024).
# Target: Glucagon-like peptide 1 receptor (Homo sapiens, UniProt P43220)
# Assay: Agonist activity at human GLP-1R expressed in HEK293 cells assessed as accumulation of cAMP preincubated for 30 mins followed by d2-labeled cAMP addition and anti-cAMP cryptate addition measured after 60 mins by HTRF assay
# Format: functional, cell-based
# Glucagon-like peptide 1 receptor, sequence (P43220 whole entry): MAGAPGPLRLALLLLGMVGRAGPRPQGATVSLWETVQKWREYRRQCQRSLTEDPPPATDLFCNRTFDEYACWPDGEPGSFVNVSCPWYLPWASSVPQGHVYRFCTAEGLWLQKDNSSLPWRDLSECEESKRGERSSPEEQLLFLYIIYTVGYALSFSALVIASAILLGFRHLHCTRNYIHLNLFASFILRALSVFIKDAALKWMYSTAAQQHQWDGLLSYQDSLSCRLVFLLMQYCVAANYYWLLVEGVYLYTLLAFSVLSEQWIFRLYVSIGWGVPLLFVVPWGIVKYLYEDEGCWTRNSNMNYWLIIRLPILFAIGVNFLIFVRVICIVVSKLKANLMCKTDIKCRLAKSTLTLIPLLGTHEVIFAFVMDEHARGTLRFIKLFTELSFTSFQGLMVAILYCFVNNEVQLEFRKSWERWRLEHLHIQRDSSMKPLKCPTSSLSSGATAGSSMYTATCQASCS
row,Compound,EC50 [nM]
1,CN1CCC(C(=O)c2ccc(COc3cccc(C4CCN(Cc5nc6ccc(C(=O)O)cc6n5C[C@@H]5CCO5)CC4)n3)c(F)c2)CC1,> 1000
2,O=C(O)c1ccc2nc(CN3CCC(c4cccc(OCc5ccc(C6COC6)cc5F)n4)CC3)n(CC3(F)CCC3)c2c1,39
3,CC(=O)c1ccc(COc2cccc(C3CCN(Cc4nc5ccc(C(=O)O)cc5n4C[C@@H]4CCO4)CC3)n2)c(F)c1,0.54
4,N#CCC1(n2c(CC3CCC(c4cccc(OCc5ccc(C6COC6)cc5F)n4)CC3)nc3ccc(C(=O)O)cc32)CC1 (configuration not stated),0.08
5,O=C(O)c1ccc2nc(CN3CCC(c4cccc(OCC5CCN(C6COC6)CC5)n4)CC3)n(C[C@@H]3CCO3)c2c1,33.2
6,CCC(=O)c1ccc(COc2cccc(C3CCN(Cc4nc5ccc(C(=O)O)cc5n4C[C@@H]4CCO4)CC3)n2)c(F)c1,0.95

# Results, then the compound that gave them:
row,EC50 [nM],Compound
1,0.08,O=C(O)c1ccc2nc(CN3CCC(c4cccc(OCc5ccc(C6(F)COC6)cc5)n4)CC3)n(C[C@@H]3CCO3)c2c1
2,2.8,O=C(O)c1ccc2nc(CN3CCC(c4cccc(OCc5ccc(C6COC6)cc5OCC(F)(F)F)n4)CC3)n(C[C@@H]3CCO3)c2c1
3,3.08,O=C(O)c1ccc2nc(CN3CCC(c4cccc(OCc5ccc(C6(O)COC6)cc5)n4)CC3)n(C[C@@H]3CCO3)c2c1

# System: not listed separately
# Assay: Metabolic stability in human liver microsomes assessed as half life at […] incubated upto 45 mins in presence of NADPH by LC-MS/MS analysis
# Format: ADME, Microsome
row,half-life [h],Compound
1,2.06,O=C(O)c1ccc2nc(CN3CCC(c4cccc(OCc5ccc(C6COC6)cc5Cl)n4)CC3)n(C[C@@H]3CCO3)c2c1
2,0.717,O=C(O)c1ccc2nc(CN3CCC(c4cccc(OCc5ccc(C6COC6)cn5)n4)CC3)n(C[C@@H]3CCO3)c2c1
3,2.56,COc1cc(C2COC2)ccc1COc1cccc(C2CCN(Cc3nc4ccc(C(=O)O)cc4n3C[C@@H]3CCO3)CC2)n1
